Reference: US20220257552A1, “METHODS OF PRESCREENING AND TREATING BREAST CANCERS WITH SELECTIVE ANDROGEN RECEPTOR MODULATORS” (priority 2021, published 2022)

How the values were obtained:
GAR15-13 PDX = assay: GAR15-13 palbociclib-resistant PDX in NSG mice; conditions: mouse, in vivo
Text: Data were presented as mean values±s.e.m. […] Data represented the mean±s.e.m. of four replicate cell culture wells per condition. […] P values are indicated by gray asterisks, where ****P<0.0001 for all highlighted comparisons.
Tissue samples from an ER-positive, PR-negative, and HER2-negative (ER^+, PR^−, HER2^−) patient that progressed on (i.e., was resistant to) palbociclib were implanted into animal (NSG mice) models and grown as a patient-derived xenograft (PDX). […] This human tumor model also had amplification of the cyclin D1 (CCND1^Amp) gene which has been implicated as a driver of therapeutic resistance to CDKi. […] This is also observed in other models tested in vitro including a palbociclib resistant MCF-7 (MCF7 palbo^R) line (FIG. 44B).

HCI-9 PDX = assay: HCI-9 patient-derived xenograft in NSG mice; type: in vivo; conditions: Formula IX 10 mpk, enzalutamide 30 mpk p.o.
Method: All animal protocols were approved by The University of Tennessee Health Science Center (UTHSC) Institutional Animal Care and Use Research Committee. Xenograft experiments were performed as previously published (Narayanan et al. (2014) PLoS One 9, e103202). Briefly, 3 million MCF-7 cells were suspended in 0.05 ml MEM+10% FBS and 0.05 ml Matrigel/nude mouse and were injected subcutaneously. Once the tumor size reached 100-200 mm^3, the animals were randomized and treated orally with the indicated drugs formulated in DMSO:PEG-300 (15:85). HCI-7, HCI-9, and HCI-13 PDXs were gifts kindly donated by Dr. Alana Welm (Huntsman Cancer Institute, Salt Lake City, Utah). HCI PDX tumor fragments (1 mm^3) were surgically implanted under the mammary fat pad in female NOD SCID Gamma (NSG) mice. Tumor volume was measured twice weekly for MCF-7 xenograft and once or twice weekly for HCI PDXs. At the end of the study, animals were sacrificed and tumors were excised, weighed, and stored for various analyses.
To determine if the same effect is observed in an AR-positive, but ER-negative breast cancer, HCI-9 tumor fragments were implanted under the mammary fat pad of NSG mice.

MR = target: T1, MR (Rattus norvegicus, UniProt P22199); assay: MR transactivation in HEK-293 cells; type: cell-based
T1 construct: expressed in transfected cells
T1 sequence (P22199 1-981): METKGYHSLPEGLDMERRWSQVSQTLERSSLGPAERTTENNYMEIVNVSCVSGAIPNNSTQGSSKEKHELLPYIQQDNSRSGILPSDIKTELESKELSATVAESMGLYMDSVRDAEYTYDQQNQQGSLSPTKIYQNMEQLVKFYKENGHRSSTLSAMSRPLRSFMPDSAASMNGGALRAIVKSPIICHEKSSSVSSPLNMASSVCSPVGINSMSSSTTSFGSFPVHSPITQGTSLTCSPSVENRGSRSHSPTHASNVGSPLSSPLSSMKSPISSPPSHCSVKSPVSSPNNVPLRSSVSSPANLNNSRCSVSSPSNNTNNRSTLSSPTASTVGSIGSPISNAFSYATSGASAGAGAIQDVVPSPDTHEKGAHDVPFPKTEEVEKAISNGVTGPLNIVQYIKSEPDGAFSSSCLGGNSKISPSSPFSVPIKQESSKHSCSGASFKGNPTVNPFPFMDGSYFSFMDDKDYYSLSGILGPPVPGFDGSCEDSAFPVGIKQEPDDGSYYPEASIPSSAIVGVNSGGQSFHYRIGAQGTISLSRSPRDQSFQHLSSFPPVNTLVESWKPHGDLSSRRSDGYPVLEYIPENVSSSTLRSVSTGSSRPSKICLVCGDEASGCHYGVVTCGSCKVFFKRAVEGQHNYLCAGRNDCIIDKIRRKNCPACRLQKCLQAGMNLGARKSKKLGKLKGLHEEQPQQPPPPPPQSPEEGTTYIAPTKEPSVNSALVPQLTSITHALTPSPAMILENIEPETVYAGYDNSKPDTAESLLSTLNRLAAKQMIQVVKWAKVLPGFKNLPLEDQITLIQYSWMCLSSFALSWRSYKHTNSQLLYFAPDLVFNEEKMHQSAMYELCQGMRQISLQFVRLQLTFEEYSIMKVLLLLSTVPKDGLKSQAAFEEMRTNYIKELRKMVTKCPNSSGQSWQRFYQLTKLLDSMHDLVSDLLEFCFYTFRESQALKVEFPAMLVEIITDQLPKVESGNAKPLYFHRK
Method: (§1) Rat GR, MR, PR, ER-α and ER-β were individually cloned into a pCR3.1 vector backbone. Sequencing was performed to verify the absence of any mutations. HEK-293 cells were plated at 90,000 cells per well of a 24 well plate in Dulbecco's Minimal Essential Media supplemented with 5% charcoal-stripped FBS. […] Luciferase assays were performed 48 h after transfection. Transcriptional activation values are represented as firefly luciferase normalized to renilla luciferase.

ER-β = target: T2, ER-β (Rattus norvegicus, UniProt Q62986); assay: ER-β transactivation in HEK-293 cells; type: cell-based
T2 construct: expressed in transfected cells
T2 sequence (Q62986 whole entry): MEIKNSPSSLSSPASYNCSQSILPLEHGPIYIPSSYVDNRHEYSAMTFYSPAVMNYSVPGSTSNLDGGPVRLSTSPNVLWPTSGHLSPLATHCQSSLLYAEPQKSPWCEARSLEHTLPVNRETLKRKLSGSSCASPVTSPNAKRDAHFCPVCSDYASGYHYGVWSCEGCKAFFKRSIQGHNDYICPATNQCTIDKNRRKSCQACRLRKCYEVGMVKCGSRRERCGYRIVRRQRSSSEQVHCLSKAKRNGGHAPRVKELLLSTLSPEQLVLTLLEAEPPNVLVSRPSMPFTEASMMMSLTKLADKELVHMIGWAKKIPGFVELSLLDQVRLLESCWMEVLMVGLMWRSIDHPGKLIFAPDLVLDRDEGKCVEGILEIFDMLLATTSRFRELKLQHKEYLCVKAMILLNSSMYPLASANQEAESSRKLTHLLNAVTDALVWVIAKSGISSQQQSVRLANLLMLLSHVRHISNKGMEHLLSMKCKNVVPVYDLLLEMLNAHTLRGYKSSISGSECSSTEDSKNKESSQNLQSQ
Method: as §1

AR-LBD = AR-LBD (Homo sapiens, UniProt P10275); assay: Competitive radioligand binding with [3H]MIB; conditions: DHT = 1.0
Chain of AR-LBD (P10275 669-900 limits assumed): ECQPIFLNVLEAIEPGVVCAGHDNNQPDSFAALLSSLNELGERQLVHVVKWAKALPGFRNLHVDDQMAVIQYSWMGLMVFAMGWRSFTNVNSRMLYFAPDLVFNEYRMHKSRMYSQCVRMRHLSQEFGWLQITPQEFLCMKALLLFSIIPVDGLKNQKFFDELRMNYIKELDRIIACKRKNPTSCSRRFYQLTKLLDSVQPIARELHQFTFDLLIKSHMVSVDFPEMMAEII

MCF-7-AR tumors = assay: Affymetrix microarray of MCF-7-AR tumors; type: in vivo, mice; conditions: Table 9
Method: Microarray Analysis was performed on RNA from MDA-MB-231-AR and MCF-7-AR tumors in order to identify and compare changes in gene expression in ER-negative (MDA-MB-231-AR; triple negative) an ER-positive (MCF-7-AR; triple positive) breast cancer tumors treated with a compound of Formula VIII (30 mg/kg/day p.o. for 4 weeks). Affymetrix analysis of the xenografts was done on pooled samples of the xenografts. The analysis included ˜70,000 sequences with ˜30,000 genes and variations thereof represented, as well as microRNA's. RNA was isolated and expression of genes was evaluated using microarray (Affymetrix Human Gene ST 2.0 array). Expression of genes in compound of Formula VIII-treated samples was compared with the expression in vehicle-treated samples.

ER-α = target: T3, ER-α (Rattus norvegicus, UniProt P06211); assay: ER-α transactivation in HEK-293 cells; type: cell-based
T3 construct: expressed in transfected cells
T3 sequence (P06211 whole entry): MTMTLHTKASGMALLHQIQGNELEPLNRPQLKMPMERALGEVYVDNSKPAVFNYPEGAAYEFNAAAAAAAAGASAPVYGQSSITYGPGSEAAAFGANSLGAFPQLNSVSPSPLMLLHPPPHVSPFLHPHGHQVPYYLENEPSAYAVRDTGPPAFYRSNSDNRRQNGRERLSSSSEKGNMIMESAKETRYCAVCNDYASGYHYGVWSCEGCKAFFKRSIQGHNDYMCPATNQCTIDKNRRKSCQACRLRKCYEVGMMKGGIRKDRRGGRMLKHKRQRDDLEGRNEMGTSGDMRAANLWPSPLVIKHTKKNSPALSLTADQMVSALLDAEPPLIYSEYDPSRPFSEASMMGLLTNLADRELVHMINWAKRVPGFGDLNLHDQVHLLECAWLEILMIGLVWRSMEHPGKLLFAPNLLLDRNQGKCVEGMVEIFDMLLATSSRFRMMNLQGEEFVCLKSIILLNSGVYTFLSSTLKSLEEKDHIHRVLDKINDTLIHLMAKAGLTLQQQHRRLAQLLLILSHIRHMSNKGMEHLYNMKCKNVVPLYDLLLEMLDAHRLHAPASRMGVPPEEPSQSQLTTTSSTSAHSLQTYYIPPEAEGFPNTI
Method: as §1

[1] = highest tested concentration 1 μM

With C[C@](O)(COc1ccc(C#N)cc1)C(=O)Nc1ccc(C#N)c(C(F)(F)F)c1 [Formula IX, (S)—N-(4-Cyano-3-(trifluoromethyl)phenyl)-3-(4-cyanophenoxy)-2-hydroxy-2-methylpropanamide] the tumor growth response (GAR15-13 PDX) was “responsive” and the tumor growth trajectory (HCI-9 PDX) was “Neither Formula IX nor enzalutamide altered the growth trajectory”.

With C[C@](O)(COc1ccc(C#N)cc1)C(=O)Nc1ccc(C#N)c(Cl)c1 [Formula VIII, (S)—N-(3-chloro-4-cyanophenyl)-3-(4-cyanophenoxy)-2-hydroxy-2-methylpropanamide] the “MR-mediated transactivation, agonist mode” value (MR; all tested concentrations) was “did not induce”, the “aldosterone-induced MR-mediated transactivation, antagonist mode” value (MR; co-incubation) was “failed to alter” and the “17β-estradiol-induced ER-β activity, antagonist mode” value (ER-β; co-incubation) was “failed to alter”. For the same compound, the “ERβ-mediated transactivation, agonist mode” value (ER-β; [1]) was “failed to activate”, the “relative binding affinities (RBAs) for AR” value (AR-LBD) was 0.314 and the AHR expression (MCF-7-AR tumors) was “Increased”. For the same compound, the CDT1 expression (MCF-7-AR tumors) was “Decreased”, the Catalase expression (MCF-7-AR tumors) was “Increased” and the EHMT1 expression (MCF-7-AR tumors) was “Increased”. The ER-α expression (MCF-7-AR tumors) was “Decreased”, the ERCC2 expression (MCF-7-AR tumors) was “Decreased” and the FACGD2 expression (MCF-7-AR tumors) was “Decreased”. For the same compound, the IRS1 expression (MCF-7-AR tumors) was “Decreased”, the KLK3 expression (MCF-7-AR tumors) was “Increased” and the MTR expression (MCF-7-AR tumors) was “Decreased”. For the same compound, the NPAS2 expression (MCF-7-AR tumors) was “Increased”, the PON2 expression (MCF-7-AR tumors) was “Increased” and the PR expression (MCF-7-AR tumors) was “Decreased”. The TIMP3 expression (MCF-7-AR tumors) was “Increased”, the XRCC1 expression (MCF-7-AR tumors) was “Decreased” and the “17β-estradiol-induced ER-α activity, antagonist mode” value (ER-α; co-incubation) was “failed to alter”. For the same compound, the “ERα-mediated transactivation, agonist mode” value (ER-α; [1]) was “failed to activate”.
